Data on eight molecules can be found in PubChem BioAssay (NCI).

For orientation: GI50 means the concentration giving 50% growth inhibition. The term TGI denotes the concentration at which net growth stops. The low end stands for more potent growth arrest, the high end for less potent growth arrest.

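Five concentrations, 48 hours, 96-well plates. The concentration for 50% growth inhibition is given as GI50. TGI is the concentration that stops growth completely.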

What all share (experiment): DTP human tumour cell line panel, 48 h
The test system of assay [1] is SNB-19 CNS.
In assay [2] the test system is NCI/ADR-RES ovarian.
Assay [3] relates to HOP-92 NSCLC.
In assay [4] the test system is UACC-257 melanoma.
The test system of assay [5] is PC-3 prostate.
Assay [6] relates to HOP-62 NSCLC.
Assay [7] deals with SK-OV-3 ovarian.
Assay [8] relates to K-562 leukemia.
The subject of assay [9] is NCI-H460 lung.
Assay [10] relates to HCT-15 colon.

`CCCCN(CCCC)c1cc(C(=O)CCCCCN)c2ccccc2n1`: the GI50 in [1] was 1.65 µM; in assay [2], 1.78 µM; in [3] it was 2.51 µM; in assay [4], 1.76 µM; in assay [5], 2.56 µM; in assay [6] it was 1.76 µM. The values for the GI50 in [7] and in assay [8] were 1.76 µM and 2.47 µM, respectively. The TGI in assay [1] came to 3.12 µM; in assay [2] it was 3.61 µM; in [3], 6.32 µM; in [4] it was 3.5 µM; in assay [5] it was 6.07 µM; in assay [6], 3.53 µM. The TGI in [7] worked out at 3.16 µM; in assay [8] it was 5 µM.
In the case of `COC(=O)C1=C(C(=O)Nc2cccnc2)C2OC1(C(Cc1ccccc1)Oc1ccccc1)C1OC21` (stereo not given), the GI50 is 14.8 µM in assay [1]; 18.8 µM in assay [2]; 1.46 µM in assay [3]; 1.85 µM in assay [4]; 16.4 µM in assay [9]; 9.62 µM in assay [5]. The GI50 was 13.2 µM in assay [6], 18.3 µM in assay [7] and 2.03 µM in [8]. For the same molecule, the total growth inhibition concentration (TGI) came to 28.8 µM in assay [1]; 56.5 µM in [2]; 3 µM in assay [3]; 3.71 µM in assay [4]; 34.1 µM in [9]; 21.9 µM in [5]. Moreover, the TGI in assay [6] came to 26.1 µM; in assay [7], 48.2 µM; in [8], 6.68 µM.
On to `O=C(Nc1cccc(-n2cc(-c3ccncc3)c(-c3cc(O)cc(Cl)c3)n2)c1)Nc1ccc(Cl)c(Cl)c1`, for which the GI50 was 3.18 µM in [1]; 3.21 µM in assay [2]; 2.1 µM in assay [10]; 1.95 µM in assay [4]; 2.18 µM in [9]; 1.69 µM in [5]. Besides, the GI50 is 2.82 µM in assay [6], 3.4 µM in assay [7] and 2.56 µM in assay [8]. The TGI in [1] is 19 µM; in assay [2], above 100 µM; in assay [10], 8.04 µM; in assay [4], 4.3 µM; in assay [9], 6.14 µM; in assay [5], 5.68 µM. Moreover, the TGI was 8.51 µM in [6], 9.43 µM in [7] and above 100 µM in assay [8].
Take `CCCCC(SC(=S)N(CC)CC)C(=O)Nc1nc(CC(=O)OCC)cs1` (stereo not given): the GI50 is 56.9 µM in assay [1]; 42.9 µM in assay [2]; 53.1 µM in [3]; 48.5 µM in assay [10]; 35.6 µM in assay [4]; 0.776 µM in assay [5]. The GI50 in [6] was above 100 µM; in assay [7] it was 75.6 µM; in [8] it was 25 µM. Further, the TGI in assay [1], in assay [2], in [3], in [10], in assay [4] and in assay [5] was above 100 µM each time. Moreover, the TGI in [6], in assay [7] and in assay [8] was above 100 µM each time.
Turning to `Nc1ccn(C2OC(CO[P+](=O)OC3C(CO[P+](=O)OC4C(CO[P+](=O)OC5C(CO[P+](=O)OC6C(CO[P+](=O)OC7C(CO[P+](=O)OC8C(CO[P+](=O)OC9C(CO[P+](=O)OC%10C(CO[P+](=O)OC%11C(CO)OC(n%12ccc(N)nc%12=O)C%11(F)F)OC(n%11ccc(N)nc%11=O)C%10(F)F)OC(n%10ccc(N)nc%10=O)C9(F)F)OC(n9ccc(N)nc9=O)C8(F)F)OC(n8ccc(N)nc8=O)C7(F)F)OC(n7ccc(N)nc7=O)C6(F)F)OC(n6ccc(N)nc6=O)C5(F)F)OC(n5ccc(N)nc5=O)C4(F)F)OC(n4ccc(N)nc4=O)C3(F)F)C(O)C2(F)F)c(=O)n1` (stereo not given), the TGI in assay [1], in assay [2], in assay [5], in assay [7] and in [8] was above 100 µM in each case. Moreover, the GI50 in assay [10] was 0.704 µM; in [4], 0.859 µM; in assay [5] it was 80.5 µM; in [6], 0.0175 µM; in assay [7], 0.255 µM; in [8], 2.71 µM.
Consider `O=C1OCC2=C1C(c1ccccc1)c1cc3c(cc1N2CCO)CCC3` (stereo not given), for which the 50% growth inhibitory concentration (GI50) is 0.119 µM in assay [1]; 0.0521 µM in [2]; 0.103 µM in assay [10]; 0.0862 µM in [4]; 0.09 µM in [9]; 0.0986 µM in assay [5]. Further, the GI50 was 0.131 µM in assay [6], 0.097 µM in assay [7] and 0.0908 µM in assay [8]. Further, the TGI in assay [1] was above 12.9 µM; in [2] it was 0.139 µM; in assay [10], above 25 µM; in [4], above 25 µM; in assay [9], 3.51 µM; in [5] it was above 25 µM. For the same molecule, the TGI is above 25 µM in [6], 8.73 µM in assay [7] and above 25 µM in [8].
On to `NC(=O)c1cccc(N)c1`, for which the GI50 in assay [1], in assay [2], in assay [3], in assay [10], in assay [9] and in assay [5] was above 100 µM in each case. Further, the GI50 in assay [6], in [7] and in assay [8] was above 100 µM each time. For the same molecule, the TGI in assay [1], in assay [2], in assay [3], in [10], in assay [9] and in [5] was above 100 µM in each case. The TGI in assay [6], in assay [7] and in assay [8] was above 100 µM in each case.
`NCC(=O)Nc1ccc(-n2nc(C(F)(F)F)cc2-c2ccc3c(ccc4ccccc43)c2)cc1`: the GI50 is 1.12 µM in [2]; 1.27 µM in [3]; 0.142 µM in assay [10]; 1.66 µM in [4]; 0.307 µM in assay [9]; 1.24 µM in assay [5]. In addition, the GI50 was 1.32 µM in [6], 1.27 µM in assay [7] and 0.472 µM in [8]. Moreover, the TGI in assay [2] was 3.12 µM; in assay [3] it was 2.65 µM; in assay [10], 1.71 µM; in assay [4] it was 3.31 µM; in [9], 1.74 µM; in [5] it was 2.66 µM. Also, the TGI stood at 2.74 µM in [6], 2.54 µM in assay [7] and 3.38 µM in assay [8].
